Experimental data from ChEMBL document CHEMBL1240316, “An oxidation-sensing mechanism is used by the global regulator MgrA in Staphylococcus aureus” (2006).
Calls of active or inactive are those of the source. The calls are words filed in the database; no cut-off is given here.

Key:
Type in all cases: functional, organism-based
[1] = test system: Staphylococcus aureus; assay: Antimicrobial activity against Staphylococcus aureus assessed as visible growth at 0.35 ug/ml after 24 hrs in presence of 20 uM paraquat
[2] = test system: Staphylococcus aureus; assay: Antimicrobial activity against Staphylococcus aureus assessed as visible growth at 0.55 ug/ml after 24 hrs
[3] = test system: Staphylococcus aureus; assay: Antimicrobial activity against Staphylococcus aureus assessed as visible growth at 0.65 ug/ml after 24 hrs
[4] = test system: Staphylococcus aureus; assay: Antimicrobial activity against Staphylococcus aureus expressing mgrA C12S mutant gene assessed as visible growth at 0.25 ug/ml after 24 hrs
[5] = test system: Staphylococcus aureus; assay: Antimicrobial activity against Staphylococcus aureus expressing mgrA C12S mutant gene assessed as visible growth at 0.45 ug/ml after 24 hrs in presence of 20 uM paraquat
[6] = test system: Staphylococcus aureus; assay: Antimicrobial activity against Staphylococcus aureus expressing mgrA C12S mutant gene assessed as visible growth at 0.55 ug/ml after 24 hrs in presence of 20 uM paraquat
[7] = test system: Staphylococcus aureus; assay: Antimicrobial activity against Staphylococcus aureus expressing mgrA C12S mutant gene assessed as visible growth at 0.75 ug/ml after 24 hrs in presence of 20 uM paraquat
[8] = test system: Staphylococcus aureus; assay: Antimicrobial activity against Staphylococcus aureus expressing mgrA C12S mutant gene harboring Pyj335-His-mgrAC12S assessed as visible growth at 0.20 ug/ml after 24 hrs in presence of 100 uM hydrogen peroxide
[9] = test system: Staphylococcus aureus; assay: Antimicrobial activity against Staphylococcus aureus expressing mgrA C12S mutant gene harboring Pyj335-His-mgrA assessed as visible growth at 0.20 ug/ml after 24 hrs
[10] = test system: Staphylococcus aureus; assay: Antimicrobial activity against Staphylococcus aureus expressing mgrA C12S mutant gene harboring plasmid Pyj335 assessed as visible growth at 0.20 ug/ml after 24 hrs
[11] = test system: Staphylococcus aureus; assay: Antimicrobial activity against Staphylococcus aureus expressing mgrA C12S mutant gene harboring plasmid Pyj335 assessed as visible growth at 0.20 ug/ml after 24 hrs in presence of 100 uM hydrogen peroxide
[12] = test system: Staphylococcus aureus; assay: Antimicrobial activity against Staphylococcus aureus expressing mgrAC12S mutant gene assessed as visible growth at 0.20 ug/ml after 24 hrs in presence of 100 uM hydrogen peroxide
[13] = test system: Staphylococcus aureus; assay: Antimicrobial activity against Staphylococcus aureus assessed as visible growth at 0.20 ug/ml after 24 hrs in presence of 100 uM hydrogen peroxide
[14] = test system: Staphylococcus aureus; assay: Antimicrobial activity against Staphylococcus aureus expressing mgrA C12S mutant gene assessed as visible growth at 0.20 ug/ml after 24 hrs in presence of 25 uM paraquat
[15] = test system: Staphylococcus aureus; assay: Antimicrobial activity against Staphylococcus aureus expressing mgrA C12S mutant gene harboring Pyj335-His-mgrAC12S assessed as visible growth at 0.20 ug/ml after 24 hrs in presence of 25 uM paraquat
[16] = test system: Staphylococcus aureus; assay: Antimicrobial activity against Staphylococcus aureus expressing mgrA C12S mutant gene harboring plasmid Pyj335 assessed as visible growth at 0.25 ug/ml after 24 hrs
[17] = test system: Staphylococcus aureus; assay: Antimicrobial activity against Staphylococcus aureus expressing mgrA C12S mutant gene harboring plasmid Pyj335 assessed as visible growth at 0.35 ug/ml after 24 hrs in presence of 20 uM paraquat
[18] = test system: Staphylococcus aureus; assay: Antimicrobial activity against Staphylococcus aureus expressing mgrAC12S mutant gene harboring plasmid Pyj335 assessed as visible growth at 0.55 ug/ml after 24 hrs
[19] = test system: Staphylococcus aureus; assay: Antimicrobial activity against Staphylococcus aureus expressing mgrA C12S mutant gene harboring Pyj335-His-mgrA assessed as visible growth at 0.25 ug/ml after 24 hrs
[20] = test system: Staphylococcus aureus; assay: Antimicrobial activity against Staphylococcus aureus expressing mgrA C12S mutant gene harboring Pyj335-His-mgrA assessed as visible growth at 0.25 ug/ml after 24 hrs in presence of 20 uM paraquat
[21] = test system: Staphylococcus aureus; assay: Antimicrobial activity against Staphylococcus aureus expressing mgrA C12S mutant gene harboring Pyj335-His-mgrA assessed as visible growth at 0.45 ug/ml after 24 hrs
[22] = test system: Staphylococcus aureus; assay: Antimicrobial activity against Staphylococcus aureus expressing mgrA C12S mutant gene harboring plasmid Pyj335-His-mgrA assessed as visible growth at 0.45 ug/ml after 24 hrs in presence of 20 uM paraquat
[23] = test system: Staphylococcus aureus; assay: Antimicrobial activity against Staphylococcus aureus expressing mgrA C12S mutant gene harboring Pyj335-His-mgrA assessed as visible growth at 0.55 ug/ml after 24 hrs in presence of 20 uM paraquat
[24] = test system: Staphylococcus aureus; assay: Antimicrobial activity against Staphylococcus aureus assessed as visible growth at 0.6 ug/ml after 24 hrs in presence of 20 uM paraquat
[25] = test system: Staphylococcus aureus; assay: Antimicrobial activity against Staphylococcus aureus assessed as visible growth at 1.4 ug/ml after 24 hrs
[26] = test system: Staphylococcus aureus; assay: Antimicrobial activity against Staphylococcus aureus assessed as visible growth at 1.4 ug/ml after 24 hrs in presence of 20 uM paraquat
[27] = test system: Staphylococcus aureus; assay: Antimicrobial activity against Staphylococcus aureus assessed as visible growth at 1.8 ug/ml after 24 hrs
[28] = test system: Staphylococcus aureus; assay: Antimicrobial activity against Staphylococcus aureus assessed as visible growth at 2.2 ug/ml after 24 hrs
[29] = test system: Staphylococcus aureus; assay: Antimicrobial activity against Staphylococcus aureus expressing mgrA C12S mutant gene assessed as visible growth at 0.6 ug/ml after 24 hrs
[30] = test system: Staphylococcus aureus; assay: Antimicrobial activity against Staphylococcus aureus expressing mgrA C12S mutant gene assessed as visible growth at 1 ug/ml after 24 hrs
[31] = test system: Staphylococcus aureus; assay: Antimicrobial activity against Staphylococcus aureus expressing mgrA C12S mutant gene harboring Pyj335-His-mgrA C12S assessed as visible growth at 1.1 ug/ml after 24 hrs
[32] = test system: Staphylococcus aureus; assay: Antimicrobial activity against Staphylococcus aureus expressing mgrAC12S mutant gene assessed as visible growth at 1.1 ug/ml after 24 hrs in presence of 100 uM hydrogen peroxide
[33] = test system: Staphylococcus aureus; assay: Antimicrobial activity against Staphylococcus aureus assessed as visible growth at 1.1 ug/ml after 24 hrs
[34] = test system: Staphylococcus aureus; assay: Antimicrobial activity against Staphylococcus aureus assessed as visible growth at 1.1 ug/ml after 24 hrs in presence of 100 uM hydrogen peroxide
[35] = test system: Staphylococcus aureus; assay: Antimicrobial activity against Staphylococcus aureus expressing mgrA C12S mutant gene assessed as visible growth at 1.8 ug/ml after 24 hrs in presence of 20 uM paraquat
[36] = test system: Staphylococcus aureus; assay: Antimicrobial activity against Staphylococcus aureus expressing mgrA C12S mutant gene assessed as visible growth at 2.6 ug/ml after 24 hrs
[37] = test system: Staphylococcus aureus; assay: Antimicrobial activity against Staphylococcus aureus expressing mgrA C12S mutant gene harboring plasmid Pyj335 assessed as visible growth at 0.6 ug/ml after 24 hrs in presence of 20 uM paraquat
[38] = test system: Staphylococcus aureus; assay: Antimicrobial activity against Staphylococcus aureus expressing mgrA C12S mutant gene harboring plasmid Pyj335 assessed as visible growth at 2.6 ug/ml after 24 hrs
[39] = test system: Staphylococcus aureus; assay: Antimicrobial activity against Staphylococcus aureus expressing mgrA C12S mutant gene harboring Pyj335-His-mgrA assessed as visible growth at 1 ug/ml after 24 hrs
[40] = test system: Staphylococcus aureus; assay: Antimicrobial activity against Staphylococcus aureus expressing mgrA C12S mutant gene harboring Pyj335-His-mgrA assessed as visible growth at 2.6 ug/ml after 24 hrs

**Q.** How did the Activity [1] turn out when O=C(O)c1cn(C2CC2)c2cc(N3CCNCC3)c(F)cc2c1=O [CIPROFLOXACIN] was run?
**A.** inactive

**Q.** And the Activity [2]?
**A.** Active

**Q.** What about the Activity [3] of the same compound?
**A.** Active

**Q.** What about the Activity [4] of the same compound?
**A.** inactive

**Q.** What about the Activity [5] of the same compound?
**A.** inactive

**Q.** And the Activity [6]?
**A.** inactive

**Q.** And the Activity [7]?
**A.** Active

**Q.** What about the Activity [8] of the same compound?
**A.** Active

**Q.** And the Activity [9]?
**A.** Active

**Q.** And the Activity [10]?
**A.** inactive

**Q.** And the Activity [11]?
**A.** inactive

**Q.** What about the Activity [12] of the same compound?
**A.** inactive

**Q.** What about the Activity [13] of the same compound?
**A.** Active

**Q.** What about the Activity [14] of the same compound?
**A.** inactive

**Q.** And the Activity [15]?
**A.** Active

**Q.** And the Activity [16]?
**A.** inactive

**Q.** What about the Activity [17] of the same compound?
**A.** inactive

**Q.** And the Activity [18]?
**A.** inactive

**Q.** What about the Activity [19] of the same compound?
**A.** inactive

**Q.** And the Activity [20]?
**A.** inactive

**Q.** What about the Activity [21] of the same compound?
**A.** Active

**Q.** And the Activity [22]?
**A.** inactive

**Q.** And the Activity [23]?
**A.** inactive

**Q.** Which results are given for CN[C@H](CC(C)C)C(=O)N[C@H]1C(=O)N[C@@H](CC(N)=O)C(=O)N[C@H]2C(=O)N[C@H]3C(=O)N[C@H](C(=O)N[C@H](C(=O)O)c4cc(O)cc(O)c4-c4cc3ccc4O)[C@H](O)c3ccc(c(Cl)c3)Oc3cc2cc(c3O[C@@H]2O[C@H](CO)[C@@H](O)[C@H](O)[C@H]2O[C@H]2C[C@](C)(N)[C@H](O)[C@H](C)O2)Oc2ccc(cc2Cl)[C@H]1O [VANCOMYCIN]?
**A.** Activity [24]: inactive; Activity [25]: Active; Activity [26]: inactive; Activity [27]: Active; Activity [28]: Active; Activity [29]: inactive; Activity [30]: inactive; Activity [31]: Active; Activity [32]: inactive; Activity [33]: Active; Activity [34]: Active; Activity [35]: inactive; Activity [36]: Active; Activity [37]: inactive; Activity [38]: Active; Activity [39]: inactive; Activity [40]: Active
